Results published in patent US20070238765A1, “Heterocyclic GABAA subtype selective receptor modulators” (Roche Palo Alto LLC, priority 2006, published 2007).
Structures can show the parent of a compound that is named as a salt.

Experiments:
[1] = target: T1, GABAA α1β2γ2 (Homo sapiens, UniProt P14867+P18507+P47870); experiment: 35S-TBPS binding assay, HEK293 membranes with GABAA α1β2γ2 construct; settings: 35S-TBPS 5 nM, GABA 1 μM, 2 hours at room temperature, read-out: α1β2γ2 (35S-TBPS binding, pIC50) (converted)
T1 construct: expressed in transfected cells; host or cells: HEK293
Protocol: (§1) The binding assay is based on the assay reported by K. Gee et al., Eur. J. Pharmacol. 1987, 136, 419-423.
(§2) Homogenate preparation: Membrane preparations of HEK293 cells containing either GABAA α1β2γ2 or GABAA α2β3γ2 constructs were performed according to a modified procedure previously described by Gee et al. (supra). Whole HEK 293 cells in D-PBS (calcium/magnesium free) buffer adjusted to pH 7.4 were centrifuged at 7,280×g for 20 m. After discarding the supernatant, the pellet was resuspended in the buffer and centrifuged at 1,820×g for 10 m. Afterwards, the supernatant was discarded and the pellet resuspended in ice-cold preparation buffer (50 mM Tris HCl pH 7.4, 4° C. and 150 mM KCl), homogenized for 30 sec using a Brinkmann Polytron PT3000 (setting 6) and centrifuged at 48,000×g for 30 m at 4° C. The centrifugation and homogenization procedure was repeated two more times for a total of 3 times before resuspending the membranes at a final protein concentration of 0.5 mg/mL. Aliquots (30 mL) of the final membrane preparation were then centrifuged at 48,000×g for 30 m, and the resulting pellets were stored at −80° C. until required.
(§3) 35S-TBPS binding assay. Membrane pellets containing either GABAA α1β2γ2 or GABAA α2β3γ2 constructs were thawed on ice, resuspended in 10 mL of 50 mM Tris HCl pH7.4, 4° C. and 150 mM KCl and centrifuged at 48,000×g, 30 m at 4° C. After discarding the supernatant, the pellet was resuspended in 30 mL incubation buffer (50 mM Tris HCl pH 7.4, 25° C. and 150 mM KCl) at approximately 0.5 mg/mL protein concentration. In 35S-TBPS competition studies, HEK293 membranes were incubated with 35S-TBPS (5 nM final) and GABA (1 μM) in the absence or presence of competitor at concentrations ranging from 0.01 nM to 10 μM in 125 μL incubation buffer for 2 hours at room temperature (˜22° C.). Non-specific binding was assayed with picrotoxin (100 μM final concentration). The binding reaction was terminated by vacuum filtration through GF/B filters previously soaked in 0.1% polyethylenimine followed by 3×1 mL washes with ice cold wash buffer (50 mM Tris HCl pH7.4, 4° C. and 150 mM KCl). Measurement of bound radioactivity was performed using a Packard Microplate 96 well topcount scintillation counter. Analysis of competition curves and estimation of pIC50 values of test compounds were performed using the software programs ActivityBase and/or Prism (version 3.0).

[2] = target: T2, GABAA α2β3γ2 (Homo sapiens, UniProt P18507+P28472+P47869); experiment: 35S-TBPS binding assay, HEK293 membranes with GABAA α2β3γ2 construct; settings: 35S-TBPS 5 nM, GABA 1 μM, 2 hours at room temperature, read-out: α2β3γ2 (35S-TBPS binding, pIC50) (converted)
T2 construct: expressed in transfected cells; host or cells: HEK293
Protocol: as §1, §2, §3

T2 sequence (P47869 29-451): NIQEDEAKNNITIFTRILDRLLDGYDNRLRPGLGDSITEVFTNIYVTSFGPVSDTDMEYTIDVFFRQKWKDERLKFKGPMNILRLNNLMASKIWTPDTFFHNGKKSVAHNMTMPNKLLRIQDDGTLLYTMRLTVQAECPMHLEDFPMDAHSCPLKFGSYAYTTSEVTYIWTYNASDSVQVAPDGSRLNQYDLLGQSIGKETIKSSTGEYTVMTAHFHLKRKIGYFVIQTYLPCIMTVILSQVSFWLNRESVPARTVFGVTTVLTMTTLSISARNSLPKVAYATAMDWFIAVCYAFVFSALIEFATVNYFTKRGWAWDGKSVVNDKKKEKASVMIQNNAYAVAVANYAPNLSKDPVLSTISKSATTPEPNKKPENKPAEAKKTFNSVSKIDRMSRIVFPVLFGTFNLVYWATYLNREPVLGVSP
T2 sequence (P28472 26-473): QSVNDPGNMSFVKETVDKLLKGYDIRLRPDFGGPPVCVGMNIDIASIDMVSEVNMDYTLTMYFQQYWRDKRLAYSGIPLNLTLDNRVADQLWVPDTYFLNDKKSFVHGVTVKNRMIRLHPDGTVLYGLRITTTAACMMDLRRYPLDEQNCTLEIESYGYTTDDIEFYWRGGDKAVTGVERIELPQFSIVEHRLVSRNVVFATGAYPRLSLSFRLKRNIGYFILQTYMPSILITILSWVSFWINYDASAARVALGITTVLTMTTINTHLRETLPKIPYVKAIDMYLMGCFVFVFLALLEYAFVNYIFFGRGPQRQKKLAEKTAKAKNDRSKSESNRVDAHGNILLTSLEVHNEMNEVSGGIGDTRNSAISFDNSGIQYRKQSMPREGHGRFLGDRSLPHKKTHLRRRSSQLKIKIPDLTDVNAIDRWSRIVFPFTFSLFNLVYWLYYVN
T2 sequence (P18507 40-475): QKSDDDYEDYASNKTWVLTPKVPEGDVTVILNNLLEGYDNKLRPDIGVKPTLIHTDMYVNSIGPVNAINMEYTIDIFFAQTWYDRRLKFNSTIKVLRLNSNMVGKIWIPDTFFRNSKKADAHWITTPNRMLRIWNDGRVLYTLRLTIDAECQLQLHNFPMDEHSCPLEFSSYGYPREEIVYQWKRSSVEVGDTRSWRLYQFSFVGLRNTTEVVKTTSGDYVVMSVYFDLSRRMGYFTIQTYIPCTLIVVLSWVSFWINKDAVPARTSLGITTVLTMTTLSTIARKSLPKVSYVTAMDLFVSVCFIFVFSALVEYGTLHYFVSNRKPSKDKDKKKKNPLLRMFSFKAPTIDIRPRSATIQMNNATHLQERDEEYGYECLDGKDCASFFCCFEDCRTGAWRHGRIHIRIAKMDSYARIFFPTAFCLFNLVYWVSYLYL
T1 sequence (P14867 28-456): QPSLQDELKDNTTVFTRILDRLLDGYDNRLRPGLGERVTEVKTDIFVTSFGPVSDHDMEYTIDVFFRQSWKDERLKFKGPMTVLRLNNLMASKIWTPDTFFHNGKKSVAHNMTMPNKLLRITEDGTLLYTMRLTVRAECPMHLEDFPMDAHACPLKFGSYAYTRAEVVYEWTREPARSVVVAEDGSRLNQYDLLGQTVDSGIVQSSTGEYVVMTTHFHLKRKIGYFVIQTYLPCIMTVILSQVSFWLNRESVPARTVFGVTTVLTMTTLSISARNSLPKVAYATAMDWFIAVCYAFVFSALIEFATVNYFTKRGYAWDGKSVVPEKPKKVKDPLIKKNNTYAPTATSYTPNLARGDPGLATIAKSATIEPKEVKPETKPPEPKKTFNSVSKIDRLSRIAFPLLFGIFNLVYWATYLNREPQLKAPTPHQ
T1 sequence (P47870 25-512 limits assumed): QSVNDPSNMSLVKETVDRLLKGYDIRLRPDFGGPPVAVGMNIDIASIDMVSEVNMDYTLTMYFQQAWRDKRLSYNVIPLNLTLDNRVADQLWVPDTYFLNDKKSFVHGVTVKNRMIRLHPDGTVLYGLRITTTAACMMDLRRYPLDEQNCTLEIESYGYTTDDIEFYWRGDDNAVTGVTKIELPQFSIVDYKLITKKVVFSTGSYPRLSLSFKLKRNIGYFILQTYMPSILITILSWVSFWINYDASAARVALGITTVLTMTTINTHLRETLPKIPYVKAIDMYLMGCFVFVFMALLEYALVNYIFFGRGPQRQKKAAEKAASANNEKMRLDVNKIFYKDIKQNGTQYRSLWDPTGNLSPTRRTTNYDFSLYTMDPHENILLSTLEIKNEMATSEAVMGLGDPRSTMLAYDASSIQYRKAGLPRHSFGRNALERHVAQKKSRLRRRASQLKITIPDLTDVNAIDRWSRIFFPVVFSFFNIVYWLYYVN
T1 sequence (P18507 40-475): as the sequence (P18507 40-475) above

IC50 [1] [nM] | IC50 [2] [nM] | melting point [°C] | Compound
2240 | 372 |  | Cn1nc2c(-c3ccc(Cl)cc3Cl)cccc2c1Cn1ncnn1 [I-49, 7-(2,4-Dichloro-phenyl)-2-meth-yl-3-tetrazol-2-yl-methyl-2H-indazole]
 |  | 167.9 to 168.9 | CCOC(=O)Cc1ncnn1Cc1c2cccc(-c3ccc(Cl)cc3Cl)c2nn1C [I-59, {2-[7-(2,4-Dichloro-phenyl)-2-meth-yl-2H-indazol-3-yl-methyl]-2H-[1,2,4]triazol-3-yl}-aceticacid ethyl ester]
2950 | 692 |  | Cn1nc2c(-c3ccc(Cl)cc3Cl)cccc2c1-c1nnn[nH]1 [I-54, 7-(2,4-Dichloro-phenyl)-2-meth-yl-3-(1H-tetrazol-5-yl)-2H-inda-zole]
> 10000 | 427 |  | Cn1nc2c(-c3ccc(Cl)cc3Cl)cccc2c1Cn1nccn1 [I-17, 7-(2,4-Dichloro-phenyl)-2-meth-yl-3-[1,2,3]triazol-2-yl-methyl-2H-indazole]
5010 | 603 |  | Cn1nc2c(-c3ccc(Cl)cc3Cl)cccc2c1Cn1cncn1 [I-42, 7-(2,4-Dichloro-phenyl)-2-meth-yl-3-[1,2,4]triazol-1-yl-methyl-2H-indazole]
> 10000 | 1620 |  | COCn1ncnc1C(=O)c1c2cccc(-c3ccc(Cl)cc3Cl)c2nn1C [I-19, [7-(2,4-Dichloro-phenyl)-2-meth-yl-2H-indazol-3-yl]-(2-meth-oxymethyl-2H-[1,2,4]tri-azol-3-yl)-meth-anone]
> 10000 | > 10000 |  | Cn1nc2c(-c3ccc(Cl)cc3Cl)cccc2c1Cc1nnnn1CS(C)(=O)=O [I-9, 7-(2,4-Dichloro-phenyl)-3-(1-meth-anesulfonylmethyl-1H-tetra-zol-5-ylmethyl)-2-meth-yl-2H-indazole]
 |  | 80.8 to 84 | CCOC(=O)Cc1ncn(Cc2c3cccc(-c4ccc(Cl)cc4Cl)c3nn2C)n1 [I-58, {1-[7-(2,4-Dichloro-phenyl)-2-meth-yl-2H-indazol-3-yl-methyl]-1H-[1,2,4]triazol-3-yl}-aceticacid ethyl ester]
5890 | 398 |  | Cn1nnnc1C(O)c1c2cccc(-c3ccc(Cl)cc3Cl)c2nn1C (stereo not drawn) [I-32, [7-(2,4-Dichloro-phenyl)-2-meth-yl-2H-indazol-3-yl]-(meth-yl-1H-tetrazol-5-yl)-meth-anol]
> 10000 | 2690 |  | CCOC(=O)Cc1nnnn1Cc1c2cccc(-c3ccc(Cl)cc3Cl)c2nn1C [I-7, {1-[7-(2,4-Dichloro-phenyl)-2-meth-yl-2H-indazol-3-yl-methyl]-1H-tetrazol-5-yl}-aceticacid ethyl ester]
> 10000 | > 10000 |  | Cn1nc2c(-c3ccc(Cl)cc3Cl)cccc2c1CC1=NCCN1 [I-29, 7-(2,4-Dichloro-phenyl)-3-(4,5-di-hydro-1H-imidazol-2-yl-methyl)-2-methyl-2H-inda-zole]
2750 | 380 |  | Cn1nc2c(-c3ccc(Cl)cc3Cl)cccc2c1Cn1cccn1 [I-37, 7-(2,4-Dichloro-phenyl)-2-meth-yl-3-pyrazol-1-yl-methyl-2H-indazole]
5890 | 1200 |  | Cn1nc2c(-c3ccc(Cl)cc3Cl)cccc2c1Cn1ccnn1 [I-16, 7-(2,4-Dichloro-phenyl)-2-meth-yl-3-[1,2,3]triazol-1-yl-methyl-2H-indazole]
> 10000 |  |  | CN(C)S(=O)(=O)n1ccnc1C(O)c1c2cccc(-c3ccc(Cl)cc3Cl)c2nn1C (stereo not drawn) [I-35, 2-{[7-(2,4-Dichloro-phenyl)-2-meth-yl-2H-indazol-3-yl]-hydroxy-methyl}-imidazole-1-sulfonicacid dimethyl-amide]
3630 | 141 |  | Cn1nnc(-c2c3cccc(-c4ccc(Cl)cc4Cl)c3nn2C)n1 [I-52, 7-(2,4-Dichloro-phenyl)-2-meth-yl-3-(2-methyl-2H-tetra-zol-5-yl)-2H-indazole]
6170 | 513 |  | CCOC(c1cnc[nH]1)c1c2cccc(-c3ccc(Cl)cc3Cl)c2nn1C (stereo not drawn) [I-26, 7-(2,4-Dichloro-phenyl)-3-[eth-oxy-(3H-imidazol-4-yl)-meth-yl]-2-methyl-2H-inda-zole]
8910 | 832 |  | Cn1nc2c(-c3ccc(Cl)cc3Cl)cccc2c1Cn1cnnn1 [I-43, 7-(2,4-Dichloro-phenyl)-2-meth-yl-3-tetrazol-1-yl-methyl-2H-indazole]
> 10000 | 3630 |  | Cn1nc2c(-c3ccc(Cl)cc3Cl)cccc2c1N1C(=O)CCC1=O [I-44, 1-[7-(2,4-Dichloro-phenyl)-2-meth-yl-2H-indazol-3-yl]-pyr-rolidine-2,5-dione]
4790 | 832 |  | CCOC(=O)c1nccn1Cc1c2cccc(-c3ccc(Cl)cc3Cl)c2nn1C [I-14, 1-[7-(2,4-Dichloro-phenyl)-2-meth-yl-2H-indazol-3-yl-methyl]-1H-imidazole-2-carboxy-lic acid ethyl ester]

Compound | IC50 [1] [nM] | IC50 [2] [nM] | melting point [°C]
Cn1nc2c(-c3ccc(Cl)cc3Cl)cccc2c1C(O)c1ncc[nH]1 (stereo not drawn) [I-28, [7-(2,4-Dichloro-phenyl)-2-meth-yl-2H-indazol-3-yl]-(1H-imi-dazol-2-yl)-methanol] | 575 | 148 | 
Cn1nc2c(-c3ccc(Cl)cc3Cl)cccc2c1Cn1ccnc1 [I-40, 7-(2,4-Dichloro-phenyl)-3-imi-dazol-1-ylmethyl-2-meth-yl-2H-indazole] | 4070 | 1150 | 
Cn1nc2c(-c3ccc(Cl)cc3Cl)cccc2c1-c1cnc[nH]1 [I-36, 7-(2,4-Dichloro-phenyl)-3-(3H-imi-dazol-4-yl)-2-meth-yl-2H-indazolehydrochloride] | 7240 | 145 | 
Cn1nc2c(-c3ccc(Cl)cc3Cl)cccc2c1C(=O)c1nccn1CCO [I-24, [7-(2,4-Dichloro-phenyl)-2-meth-yl-2H-indazol-3-yl]-[1-(2-hydroxy-ethyl)-1H-imi-dazol-2-yl]-methanone] | 3720 | 214 | 
Cn1nc2c(-c3ccc(Cl)cc3Cl)cccc2c1C(O)c1cnc[nH]1 (stereo not drawn) [I-27, [7-(2,4-Dichloro-phenyl)-2-meth-yl-2H-indazol-3-yl]-(3H-imi-dazol-4-yl)-methanol] | 2340 | 550 | 
Cn1nc2c(-c3ccc(Cl)cc3Cl)cccc2c1Cc1ncc[nH]1 [I-21, 7-(2,4-Dichloro-phenyl)-3-(1H-imi-dazol-2-ylmethyl)-2-meth-yl-2H-indazole] | 3550 | 550 | 
Cn1nc2c(-c3ccc(Cl)cc3Cl)cccc2c1C(=O)c1ncc[nH]1 [I-30, [7-(2,4-Dichloro-phenyl)-2-meth-yl-2H-indazol-3-yl]-(1H-imi-dazol-2-yl)-meth-anone] | 4470 | 166 | 
COC(=O)c1cncn1Cc1c2cccc(-c3ccc(Cl)cc3Cl)c2nn1C [I-13, 3-[7-(2,4-Dichloro-phenyl)-2-meth-yl-2H-indazol-3-yl-methyl]-3H-imidazole-4-carboxy-lic acid methyl ester] |  | 912 | 
Cn1nc2c(-c3ccc(Cl)cc3Cl)cccc2c1-c1ncc[nH]1 [I-45, 7-(2,4-Dichloro-phenyl)-3-(1H-imi-dazol-2-yl)-2-meth-yl-2H-indazole] | 5620 | 537 | 
Cn1nc2c(-c3ccc(Cl)cc3Cl)cccc2c1Cc1cnc[nH]1 [I-25, 7-(2,4-Dichloro-phenyl)-3-(3H-imi-dazol-4-ylmethyl)-2-meth-yl-2H-indazole] | > 10000 | 1150 | 
